In patent publication US11840495B2, “Compositions and methods related to di-substituted bicyclo[2.2.1] heptanamine-containing compounds” (The Broad Institute, Inc., priority 2020, dated 2023):
Like-named read-outs stand apart in the source and are kept apart here.

What was measured:
MUC1-wt = test: Immunofluorescence imaging of MUC1-wt in P cells (Example 2); type: cell-based; conditions: for EC50: 48 hr incubation, MUC1-wt; for WT EMax / WT ECMax (%): 48 hr; for WT EMax: DMSO = 0, JQ1 = −100% activity, in %; for WT ECMax (%): DMSO = 0, JQ1 (250 nM) = −100% activity
Procedure: (§1) P cells were seeded 24 hr prior to compound treatment at a density of 12,000 cells/well in 384 well Cell Carrier Ultra plates (6057308, Perkin Elmer), pre-coated with 0.25 mg/mL Synthemax II SC Substrate (3535, Corning). Compounds were used at 5 doses (35, 3.5, 0.35, 0.035 and 0.0035 μM) for the primary screen and 10 doses (16, 5.6, 1.8, 0.6, 0.21, 0.07, 0.02, 0.008, 0.002 and 0.0008 μM) for the following screens. The compounds, in two replicates, were transferred from compound source plates to the cell plates using the HighRes Pin Tool. DMSO was used as a negative control and JQ1 (250 nM) (a bromodomain inhibitor) was chosen as a positive control, based on earlier studies showing its potent effect on reducing total MUC1 mRNA levels (data not shown). After 48 hr incubation, cells were fixed for 20 min in 4% PFA (Electron Microscopy Sciences) in PBS, washed twice, then permeabilized (10 min) with 0.5% Triton-X100 (X100-100ML, Sigma-Aldrich) in PBS and washed once more. Cells were blocked for 10 min at RT with Blocking solution (100 mM Tris HCL pH8; 150 mM NaCL; 5 g/L Blocking Reagent [11096176001, Roche]), then incubated 90 min at RT with one of the following primary antibodies in Roche Blocking solution: 1:500, monoclonal Fab-A-VSH anti-MUC1-fs, AbD22655.2, Bio-Rad; 1:2000, monoclonal mouse anti-MUC1 (214D4), 05-652-KC, Millipore; 1:1000, monoclonal, Rabbit anti-GM130 (D6B1) XP, 12480, Cell signaling technology. The primary antibody cocktail was incubated at RT for 1.5 hr, followed by four PBS wash cycles. The secondary antibody cocktail contained four components that were all prepared at a 1:1000 dilution in the Roche blocking solution and consisted of Alexa Fluor® 488-conjugated AffiniPure F(ab′)2 Fragment Goat anti-Human IgG, 109-546-097, Jackson Immunoresearch; Alexa Fluor® 647-conjugated Goat anti-Rabbit IgG, A-21246, Thermo Fisher Scientific®; Alexa Fluor® 546 Goat anti-mouse IgG, A-21123, Thermo Fisher Scientific® and Hoechst 33342 stain (62249, Thermo Fisher Scientific®). The secondary antibody cocktail was incubated at RT for 45 min, followed by four PBS wash cycles. Finally, plates were sealed with a Plate Loc plate and stored in Liconic incubator at 10° C. until imaging. Following image analysis, three parameters were selected, i) MUC1-fs and ii) MUC1-wt total cytoplasm intensity (averaged per cell) and iii) cell number as was detected by Hoechst 33342 stained nuclei. The levels of MUC1-fs and MUC1-wt found following DMSO and JQ1 were defined as 0 and −100% activity, respectively. The values obtained for all compounds were normalized accordingly. Cell number was normalized to DMSO control.

MUC1-fs = test: Immunofluorescence imaging of MUC1-fs in P cells (Example 2); type: cell-based; conditions: for EC50: 48 hr incubation, MUC1-fs; for Emax / ECMax (%): 48 hr; for Emax: DMSO = 0, JQ1 = −100% activity, in %; for ECMax (%): DMSO = 0, JQ1 (250 nM) = −100% activity
Procedure: as §1

EC50 (MUC1-wt; read-out: WT EC50)	EC50 (MUC1-fs; read-out: EC50)	EC50 (MUC1-wt; read-out: WT EC50 (Cytoplasm))	EC50 (MUC1-fs; read-out: EC50(Spot))	Compound	WT EMax (MUC1-wt)	Emax (MUC1-fs)	WT ECMax (%) (MUC1-wt)	ECMax (%) (MUC1-fs)	WT EMax (MUC1-wt; hydrochloride)	Emax (MUC1-fs; hydrochloride)
> 16 µM	> 16 µM			Cl.N[C@H]1[C@@H]2CC[C@@H](C2)C12CCCC(C(=O)N1CCOCC1)C2 (stereo partly drawn) [Compound 226-1, ((1S,3S,4R)-3-aminospiro[bicyclo[2.2.1]heptane-2,1′-cyclohexan]-3′-yl)(morpholino)methanone hydrochloride]	−24.5	−32.0				
		> 32 µM	> 32 µM	CCCCC1(C)C2CCC(C2)C1N (stereo not shown) [Compound 206-P2]			−3.86%	−10.5%		
		> 1.8 µM	0.02 µM	Cl.N[C@@H]1[C@@H]2CC[C@@H](C2)[C@]12CC=CCC2 (racemic) [Compound 213]			~175%	−86.49%		
> 16 µM	4.14 µM			NC1C2CCC(C2)C12CCC(O)C2 (racemic) [Compound 249B, rac-3-aminospiro[bicyclo[2.2.1]heptane-2,1′-cyclopentan]-3′-ol]	−6.7	−72.5				
> 16 µM	0.077 µM			CC1(N)C2CCC(C2)C12CCCC2 (racemic) [Compound 233, rac-3-methylspiro[bicyclo[2.2.1]heptane-2,1′-cyclopentan]-3-amine]	21.8	−86.9				
		> 32 µM	20.1 µM	C[C@H]1CC[C@@]2(C1)[C@@H]1CC[C@@H](C1)[C@@H]2N.Cl [Compound 211-P2-A]			3.22%	−23.56%		
		8.87 µM	0.11 µM	Cl.N[C@@H]1[C@@H]2CC[C@@H](C2)C12CCCCCC2 (racemic) [Compound 215]			63%	−56.54%		
> 16 µM	1.63 µM			Cl.N[C@H]1[C@@H]2CC[C@@H](C2)C12CCCCC2 [Compound 231, (1S,3S,4R)-spiro[bicyclo[2.2.1]heptane-2,1′-cyclohexan]-3-amine hydrochloride]	−7.0	−76.5				
> 16 µM	> 16 µM			Cl.NC1C2CCC(C2)C12CC(O)C(O)C2 (racemic) [Compound 228, rac-3-aminospiro[bicyclo[2.2.1]heptane-2,1′-cyclopentane]-3′,4′-diol hydrochloride]	−10.2	−15.1				
		> 32 µM	15.1 µM	C[C@@H]1CCC[C@@]2(C1)[C@@H]1CC[C@@H](C1)[C@@H]2N.Cl [Compound 214-P2-B]			−4.96%	−29.12%		
> 16 µM	> 16 µM			Cl.NC(=O)C1CCCC2(C1)C1CCC(C1)C2N (racemic) [Compound 224, rac-3-aminospiro[bicyclo[2.2.1]heptane-2,1′-cyclohexane]-3′-carboxamide hydrochloride]	−24.4	−17.0				
4.5 µM	0.011 µM			CC(C)C1(C)C2CCC(C2)C1N.Cl (racemic) [Compound 245, rac-3-isopropyl-3-methylbicyclo[2.2.1]heptan-2-amine hydrochloride]	106.2	−90.2				
> 16 µM	> 16 µM			COCC1CCCC2(C1)C1CCC(C1)C2N.Cl (racemic) [Compound 225-1, rac-3′-(methoxymethyl)spiro[bicyclo[2.2.1]heptane-2,1′-cyclohexan]-3-amine hydrogen chloride]	−15.8	−13.3				
> 16 µM	> 16 µM			Cl.N[C@@H]1[C@@H]2CC[C@@H](C2)C12CCCC(C(=O)N1CCCCC1)C2 (stereo partly drawn) [Compound 227, ((1S,3R,4R)-3-aminospiro[bicyclo[2.2.1]heptane-2,1′-cyclohexan]-3′-yl)(piperidin-1-yl)methanone hydrochloride]	4.6	−39.9				
		> 32 µM	15.5 µM	C[C@@H]1CC[C@@]2(C1)[C@H]1CC[C@H](C1)[C@H]2N.Cl [Compound 210-P1-B]			−4.05%	−26.85%		
> 16 µM	1.9 µM			CC(C)[C@@]1(C)[C@H]2CC[C@H](C2)[C@H]1N.Cl [Compound 246-A, (1R,2R,3S,4S)-3-isopropyl-3-methylbicyclo[2.2.1]heptan-2-amine hydrochloride]	20.7	−67.8				
> 16 µM	> 16 µM			Cl.NCC1CCCC2(C1)C1CCC(C1)C2N (racemic) [Compound 221, rac-3′-(aminomethyl)spiro[bicyclo[2.2.1]heptane-2,1′-cyclohexan]-3-amine hydrochloride]	15.6	16.2				
> 16 µM	4.83 µM			C[C@]1(N)[C@@H]2CC[C@@H](C2)C12CCCCC2.Cl [Compound 234, (1S,3S,4R)-3-methylspiro[bicyclo[2.2.1]heptane-2,1′-cyclohexan]-3-amine hydrochloride]	6.7	−96				
5.6 µM	0.029 µM			NC1C2CCC(C2)C12CC1CCC2C1 (racemic) [Compound 238-B, rac-2,2′-spirobi[bicyclo[2.2.1]heptan]-3-amine]	40.7	−106.4				
		3.01 µM	1.57 µM	NC1C2CCC(C2)C12CCCCC2 [Compound 212-P1, (1R,3S,4S)-spiro[bicyclo[2.2.1]heptane-3,1′-cyclohexan]-2-amine]			110.73%	−65.18%		
		> 32 µM	> 32 µM	CCCC1(CCC)[C@H]2CC[C@H](C2)[C@H]1N.Cl (racemic) [Compound 205]			−12.24%	−3.08%		
> 16 µM	> 16 µM			Cl.N[C@@H]1[C@@H]2CC[C@@H](C2)C12CCC[C@H](O)C2 (stereo partly drawn) [Compound 241-A, (1S,3R,3′S,4R)-3-aminospiro[bicyclo[2.2.1]heptane-2,1′-cyclohexan]-3′-ol hydrochloride]	−5.7	−11.4				
> 16 µM	13.3 µM			CC12CC3(CC1(C)C2)C1CCC(C1)C3N.Cl (racemic) [Compound 237, rac-1′,5′-dimethylspiro[bicyclo[2.2.1]heptane-2,3′-bicyclo[3.1.0]hexan]-3-amine hydrochloride]	−10.0	−45.1				
> 16 µM	> 16 µM			CC1(CC2CC2)C2CCC(C2)C1N.Cl (racemic) [Compound 243-A, rac-3-(cyclopropylmethyl)-3-methylbicyclo[2.2.1]heptan-2-amine hydrochloride]					3.2	−40.4

Compound	EC50 (MUC1-wt; read-out: WT EC50)	EC50 (MUC1-fs; read-out: EC50)	EC50 (MUC1-wt; read-out: WT EC50 (Cytoplasm))	EC50 (MUC1-fs; read-out: EC50(Spot))	WT EMax (MUC1-wt)	Emax (MUC1-fs)	WT ECMax (%) (MUC1-wt)	ECMax (%) (MUC1-fs)	WT EMax (MUC1-wt; hydrochloride)	Emax (MUC1-fs; hydrochloride)
CCC1(CC)[C@@H]2CC[C@@H](C2)[C@@H]1N [Compound 204-P2]			1.09 µM	0.02 µM			65.02%	−90.34%		
CC[C@@]1(Cc2ccccc2)[C@@H]2CC[C@@H](C2)[C@@H]1N.Cl [Compound 219-P2, (1S,2S,3R,4R)-3-benzyl-3-ethylbicyclo[2.2.1]heptan-2-amine hydrochloride]	> 16 µM	> 16 µM			11.3	−10.3				
(1R,3S,4S)-spiro[bicyclo[2.2.1]heptane-3,1′-cyclopentan]-2-amine hydrochloride [Compound 209-P1]			> 5.6 µM	0.04 µM			−210%	−70.66%		
(1S,3R,4R)-spiro[bicyclo[2.2.1]heptane-3,1′-cyclohexan]-2-amine [Compound 212-P2]			2.6 µM	0.01 µM			183.41%	−68.36%		
